Measured values reported in ChEMBL document CHEMBL3727348, “3-(aryl or heteroaryl) methyleneindolin-2-one derivatives as inhibitors of cancer stem cell pathway kinases for the treatment of cancer” (2014).

Experiments:
Format in all cases: functional, cell-based
[1] = test system: FaDu; assay: Cytotoxic activity against human FADU cancer stem cells incubated for 72 hrs by Cell-titer-Glo luminescence assay
[2] = test system: FaDu; assay: Cytotoxic activity against human FADU bulk cells incubated for 72 hrs by Cell-titer-Glo luminescence assay
[3] = test system: A549; assay: Cytotoxic activity against human A549 bulk cells incubated for 72 hrs by Cell-titer-Glo luminescence assay; details: A549, 72 h
[4] = test system: ACHN; assay: Cytotoxic activity against human ACHN bulk cells incubated for 72 hrs by Cell-titer-Glo luminescence assay
[5] = test system: A549; assay: Cytotoxic activity against human A549 cancer stem cells incubated for 72 hrs by Cell-titer-Glo luminescence assay; details: A549, 72 h

SMILES	IC50 [1] [µM]	IC50 [2] [µM]	also measured
CCOC(=O)CCc1cccc(-c2nc(-c3ccc4c(c3)/C(=C/c3[nH]c(C)c(C(=O)NCCN(CC)CC)c3C)C(=O)N4)cs2)c1	2.34	–	–
Cc1cc(C)c(/C=C2\C(=O)Nc3ccc(-c4nc5ccccc5s4)cc32)[nH]1	–	26.8	IC50 [3]: 16.1 µM; IC50 [4]: 14.7 µM
COc1ccc(-c2ccc3c(c2)/C(=C/c2[nH]c(C)cc2C)C(=O)N3)c(C)c1	–	19.8	IC50 [4]: 24.8 µM
Cc1[nH]c(/C=C2\C(=O)Nc3ccc(-c4ccnn4-c4ccc(C#N)cc4)cc32)c(C)c1C(=O)N1CCN(C)CC1	48.2	–	–
Cc1cc(C)c(/C=C2\C(=O)Nc3ccc(-c4nccc5ccccc45)cc32)[nH]1	–	23.5	IC50 [3]: 18.4 µM
CCN(CC)CCNC(=O)c1c(C)[nH]c(/C=C2\C(=O)Nc3ccc(-c4cnc(-c5ccccc5)s4)cc32)c1C	–	23.7	–
CCN(CC)CCNC(=O)c1c(C)[nH]c(/C=C2\C(=O)Nc3ccc(-c4csc(-c5cccc(Br)c5)n4)cc32)c1C	7.82	24.8	–
CCN(CC)CCNC(=O)c1c(C)[nH]c(/C=C2\C(=O)Nc3ccc(-c4nnc(-c5ccccc5)o4)cc32)c1C	21.5	8.23	–
O=C1Nc2ccc(-c3csc(-c4ccccc4)n3)cc2/C1=C/c1cc2ccccc2[nH]1	–	49.3	–
CCN(CC)CCNC(=O)c1[nH]c(/C=C2\C(=O)Nc3ccc(-c4csc(-c5ccccc5)n4)cc32)c2c1CCCC2	–	–	IC50 [4]: 9.91 µM
O=C1Nc2ccc(-c3csc(-c4ccncc4)n3)cc2/C1=C/c1ccc(N2CCOCC2)cc1	–	17.5	–
Cc1cc(C)c(/C=C2\C(=O)Nc3cc(-c4cnc5ccccn45)ccc32)[nH]1	–	19.4	IC50 [4]: 20.6 µM
Cc1cc(C)c(/C=C2\C(=O)Nc3cc(-c4cccc(C#N)c4C)ccc32)[nH]1	39.1	–	–
Cc1[nH]c(/C=C2\C(=O)Nc3ccc(-c4cnc(-c5ccccc5)[nH]4)cc32)c(C)c1C(=O)N1CCN(C)CC1	13.2	5.54	–
COc1ccc(-c2ccc3c(c2)/C(=C/c2[nH]c(C)cc2C)C(=O)N3)nc1	–	–	IC50 [3]: 0.07 µM
CCN(CC)CCNC(=O)c1c(C)[nH]c(/C=C2\C(=O)Nc3ccc(-c4csc(-c5ccccn5)n4)cc32)c1C	–	46.9	–
CCN(CC)CCNC(=O)c1c(C)[nH]c(/C=C2\C(=O)Nc3ccc(-c4cnc(-c5ccccc5)[nH]4)cc32)c1C	–	5.34	IC50 [4]: 20.6 µM

SMILES	IC50 [1] [µM]	IC50 [2] [µM]	also measured
Cc1ccc(-c2nc(-c3ccc4c(c3)/C(=C/c3[nH]c(C)c(C(=O)N5CCOCC5)c3C)C(=O)N4)cs2)cc1	–	3.05	–
Cc1[nH]c(/C=C2\C(=O)Nc3ccc(-c4csc(-c5ccccc5)n4)cc32)c(C)c1CCC(=O)O	–	–	IC50 [5]: 1.65 µM
Cc1cc(C)c(/C=C2\C(=O)Nc3cc(-c4ccc(-c5ccccc5)nc4)ccc32)[nH]1	18.2	–	–
CCN(CC)CCNC(=O)c1ccc(/C=C2\C(=O)Nc3ccc(-c4csc(-c5ccccc5)n4)cc32)[nH]c1=O	6.15	3.1	IC50 [3]: 3.64 µM; IC50 [4]: 3.31 µM
O=C1Nc2ccc(-c3csc(-c4ccccc4)n3)cc2/C1=C/c1ccc(C(=O)NCCN2CCOCC2)c(=O)[nH]1	33.7	–	–
CCN(CC)CCNC(=O)c1c(C)[nH]c(/C=C2\C(=O)Nc3ccc(-c4ccc(-c5cccnc5)s4)cc32)c1C	40.8	14.3	–
CCN(CC)CCNC(=O)c1c(C)[nH]c(/C=C2\C(=O)Nc3ccc(C4CCN(C5CCOCC5)CC4)cc32)c1C	–	23.9	–
Cc1[nH]c(/C=C2\C(=O)Nc3ccc(-c4cnc(-c5ccccc5)o4)cc32)c(C)c1C(=O)N1CCN(C)CC1	9.35	12.1	–
CCN(CC)CCNC(=O)c1c(C)[nH]c(/C=C2\C(=O)Nc3ccc(-c4nnc(-c5ccccc5)s4)cc32)c1C	0.23	2.15	IC50 [3]: 48.9 µM
Cc1[nH]c(/C=C2\C(=O)Nc3ccc(-c4ccnn4-c4ccccc4)cc32)c(C)c1C(=O)N1CCN(C)CC1	11.5	4.55	–
Cc1[nH]c(/C=C2\C(=O)Nc3ccc(-c4cnn(-c5ccccc5)c4C)cc32)c(C)c1C(=O)NCCN1CCCC1	1.31	5.79	–
CCN(CC)CCN1CCCc2[nH]c(/C=C3\C(=O)Nc4ccc(-c5csc(-c6ccccc6)n5)cc43)c(C)c2C1=O	–	5.31	IC50 [3]: 18 µM
Cc1[nH]c(/C=C2\C(=O)Nc3ccc(-c4ncc(-c5ccccc5)o4)cc32)c(C)c1C(=O)N1CCN(C)CC1	2.38	–	–
CCN(CC)CCNC(=O)c1c(C)[nH]c(/C=C2\C(=O)Nc3ccc(C4CCN(c5ncccn5)CC4)cc32)c1C	18.8	6.47	–
CCN(CC)CCNC(=O)c1c(C)[nH]c(/C=C2\C(=O)Nc3ccc(-c4cnc(-c5ccccc5)o4)cc32)c1C	41.5	9.73	IC50 [4]: 12.2 µM
Cc1[nH]c(/C=C2\C(=O)Nc3ccc(-c4cnn(-c5ccccc5)c4C)cc32)c(C)c1C(=O)N1CCOCC1	37.2	6.76	–
CN1CCN(C(=O)c2ccc(/C=C3\C(=O)Nc4ccc(-c5csc(-c6ccccc6)n5)cc43)[nH]c2=O)CC1	23.2	–	–
